The text below walks through data of patent US20040033614A1, “Detection of oxidative intermediates in biological samples” (priority 2002, published 2004).

Assay [1] concerns superoxide dismutase and glutathione peroxidase. The settings on record: 5/6th nephrectomized rats treated with enalapril; reference 26; cited from earlier work.
Assay [2] concerns plasma protein carbonyl. Put plainly: Total plasma protein carbonyl measurement by size exclusion HPLC. The format is in vivo, patients with chronic kidney disease. The settings on record: direct measurement of protein carbonylation in plasma. The procedure:
(§1) The protocol design of this study was reported in detail previously (15). Briefly, patients between the ages of 18 to 80 years with proteinuria of ≧1 g/d, hypertension defined as mean arterial pressure ≧97 mm Hg, serum potassium of ≦5.5 mEq/L and on lisinopril therapy of 40 mg/d for >3 months were eligible for the study. Patients who had previously received angiotensin receptor blockers or with estimated creatine clearance of <30 ml/min were excluded.
(§2) The study was a two period, cross-over, randomized controlled trial. Patients received either a sequence of losartan 50 mg/d for 4 weeks, a two week washout, and then placebo for 4 weeks or placebo for 4 weeks, a two week washout, and then losartan 50 mg/d for 4 weeks. Lisinopril 40 mg/d along with other anti-hypertensive therapy were continued throughout the trial. 24-hour urine was collected for protein, sodium, urea and creatinine, urinary carbonylated protein, malondialdehyde and monocyte chemotactic protein-l (MCP1) measurements. As the standard therapy for patients with proteinuria and renal failure includes ACE-inhibitors, ACE-inhibitors were not removed from any patient enrolled in the study.
A general note: SEC sorts molecules by how far they enter the pores of the column.

In assay [3] the test system is urinary albumin and total urinary protein oxidation. Put plainly: Carbonylation of urine proteins by Western blotting (DNP derivatization, OxyBlot). The assay is classed as in vivo, patients with chronic kidney disease. The protocol:
as §1, §2
Oxidation of plasma and urine proteins was measured by Western blot analysis according to the method of Shacter et al. Total protein was determined using the Vitros Dry Slide system (Ortho-Clinical Diagnostics, Rochester, N.Y.). Plasma was diluted 1:25 (v:v) with phosphate-buffered saline (PBS), and one aliquot of the diluted sample was derivatized and another prepared as an underivatized control using the OxyBlot protein oxidation detection kit (Intergen, Purchase, N.Y.). […] Derivatized and underivatized plasma or urine samples were loaded on electrophoresis gels in volumes calculated to give 5 μg of protein per sample, and the samples were electrophoresed according to the method of Laemmli on 4 to 20% gradient SDS-PAGE (Bio-Rad, Hercules, Calif.). […] Bands were visualized with chemiluminescent chemicals and captured on film at two exposure times (30 seconds and 1 minute). Blots were scanned on a Hewlett-Packard ScanJet 5200C scanner (Hewlett-Packard, Palo Alto, Calif.) and analyzed for band area using Un-Scan-It Gel software (Silk Scientific, Orem, Utah).
Samples from individual patients before and after losartan therapy, including derivatized and underivatized controls, were analyzed on a single Western blot. This ensured that the response to losartan therapy was compared under the same analytical conditions. […] Density of individual albumin bands and total protein in each sample lane was determined using the same size section of each scanned blot. […] The uniform window size and analysis box ensured that data were being analyzed consistently from band to band and from blot to blot. […]

Assay [4] can be described thus: Blood pressure and proteinuria in the add-on losartan trial. The assay is classed as in vivo, patients with chronic kidney disease. The settings on record: losartan 50 mg/d added to lisinopril 40 mg/d; as reported previously (15). The procedure: The protocol design of this study was reported in detail previously (15). Briefly, patients between the ages of 18 to 80 years with proteinuria of ≧1 g/d, hypertension defined as mean arterial pressure ≧97 mm Hg, serum potassium of ≦5.5 mEq/L and on lisinopril therapy of 40 mg/d for >3 months were eligible for the study. […] The study was a two period, cross-over, randomized controlled trial. Patients received either a sequence of losartan 50 mg/d for 4 weeks, a two week washout, and then placebo for 4 weeks or placebo for 4 weeks, a two week washout, and then losartan 50 mg/d for 4 weeks. Lisinopril 40 mg/d along with other anti-hypertensive therapy were continued throughout the trial. […] Serum chemistries, complete blood counts, urine protein, electrolytes, urea and creatinine were measured in a hospital laboratory using routine methods. Specifically, creatinine was measured on a Hitachi 911 analyzer (Boehringer Mannheim) using the alkaline picrate method and urine protein was measured using a turbidometric method using benzethonium chloride read at 550 nm (Roche Diagnostics Corporation, Indianapolis, Ind.). Ambulatory blood pressure was measured with SpaceLabs 90207 monitors and glomerular filtration rate measurements with continuous infusion of iothalamate as previously reported (15).

Assay [5] deals with plasma albumin and total plasma protein oxidation. Put plainly: Carbonylation of plasma proteins by Western blotting (DNP derivatization, OxyBlot). The format is in vivo, patients with chronic kidney disease. The settings on record: before vs after losartan 50 mg/d for 4 weeks. The procedure: as §1
The study was a two period, cross-over, randomized controlled trial. […]
Oxidation of plasma and urine proteins was measured by Western blot analysis according to the method of Shacter et al. Total protein was determined using the Vitros Dry Slide system (Ortho-Clinical Diagnostics, Rochester, N.Y.). […] Derivatized and underivatized plasma or urine samples were loaded on electrophoresis gels in volumes calculated to give 5 μg of protein per sample, and the samples were electrophoresed according to the method of Laemmli on 4 to 20% gradient SDS-PAGE (Bio-Rad, Hercules, Calif.). […] Blots were scanned on a Hewlett-Packard ScanJet 5200C scanner (Hewlett-Packard, Palo Alto, Calif.) and analyzed for band area using Un-Scan-It Gel software (Silk Scientific, Orem, Utah).
Samples from individual patients before and after losartan therapy, including derivatized and underivatized controls, were analyzed on a single Western blot. […]

For assay [6], the system named is plasma MDA. Put plainly: Plasma malondialdehyde by fluorometric HPLC, cross-over trial of add-on losartan. The format is in vivo, patients with chronic kidney disease. The settings on record: losartan 50 mg/d for 4 weeks added to lisinopril 40 mg/d. The procedure: (§3) Sample derivatization was carried out in 2 mL capacity plastic centrifuge tubes fitted with screw-on caps. To a 50 μl aliquot of sample or TEP standard, 50 μl BHT solution, 400 μl H3PO4 solution, and 100 μl TBA solution were added. Sample tubes were capped tightly, vortexed and then heated for 1 hour in a 100° C. dry bath incubator. Following heat derivatization, samples were placed in an ice-water (0° C.) water bath for 5 minutes to cool. 250 μl n-butanol was subsequently added to each vial for extracting the MDA-TBA complex. Tubes were vortexed for 5 minutes and then centrifuged for 3 minutes at 14,000× min^−1 to separate the two phases. Aliquots of 100 μl were removed from the n-butanol layer of each sample and placed in HPLC vials for analysis.
(§4) The chromatographic system consisted of a Hewlett-Packard Chromatographic Series 1100 autosampler and isocratic pump and Hewlett-Packard model 1046A programmable fluorescence detector (Palo Alto, Calif., USA). The autosampler was programmed to inject 10 μl of each sample at 1-minute intervals. The pump flow rate was 1.0 ml/min with the mobile phase comprised of methanol-buffer (40:60, v/v). […] The fluorescence detector was set at an excitation wavelength of 515 nm and emission wavelength of 553 nm. […] Peak areas were determined using a ChromJet integrator (Thermo Separation Products, San Jose, Calif.). […]

Assay [7] has as its system urinary MDA. The assay is described as follows: Urinary malondialdehyde by fluorometric HPLC, cross-over trial of add-on losartan. The format is in vivo, patients with chronic kidney disease. The settings on record: losartan 50 mg/d for 4 weeks added to lisinopril 40 mg/d; significantly decreased from 4.75±3.23 before therapy; mean ± SD, 16 patients. The procedure: as §3, §4

Structures are written as SMILES.

As to `CCOC(=O)[C@H](CCc1ccccc1)N[C@@H](C)C(=O)N1CCC[C@H]1C(=O)O` [enalapril], the “antioxidant enzymes in the kidney (superoxide dismutase, glutathione peroxidase)” value in assay [1] is reported as “increased”.

On to `CCCCc1nc(Cl)c(CO)n1Cc1ccc(-c2ccccc2-c2nn[nH]n2)cc1` [losartan], for which, in assay [2], the “carbonyl concentration from oxidized proteins in plasma, change with losartan” value was “remained unchanged”. Also, in assay [3] (after treatment, p=0.029, 99% higher before therapy), the “total urinary protein oxidation in excess of plasma after losartan therapy” value stood at 69%. Besides, the “urinary albumin oxidation compared to plasma albumin after losartan” value in assay [3] (after treatment, p=0.45, 71% higher before therapy) is reported as “no more oxidized”. Moreover, the “total urinary protein oxidation, change with losartan” value in assay [3] (before vs after losartan 50 mg/d for 4 weeks) is recorded as “did not reach statistical significance”. In addition, the “oxidative damage to urinary albumin” value in assay [3] (losartan 50 mg/d for 4 weeks added to lisinopril 40 mg/d, before vs after, proteinuria not reduced) was “reduced”. Moreover, in assay [4], the “blood pressure, change in response to add-on losartan therapy” value is “no change” and the “proteinuria, change in response to add-on losartan therapy” value is “no change”. Moreover, in assay [5], the “plasma albumin oxidation, change with losartan” value was “remained unchanged” and the “plasma protein oxidation, change with losartan” value was “remained unchanged”. Also, in assay [6], the “plasma MDA, change in response to losartan therapy” value is “Neither plasma MDA or plasma oxidized proteins (FIGS. 6B and 7) changed”. Further, the “urinary MDA levels after losartan therapy” value in assay [7] turned out to be 3.39±2.17 μmol/g creatinine.
